According to patent publication US20250250282A1, “NOVEL SEVEN-MEMBERED RING-FUSED COMPOUNDS” (PRISM Biolab Co., Ltd., priority 2022, published 2025):

System: CellSensor T-REx NICD CSL-bla HeLa cell line (Notch response element driving beta-lactamase reporter)
Test: Notch assay (CSL-bla beta-lactamase reporter, DOX-inducible NICD)
Format: cell-based
Conditions: Homo sapiens; 10 μM compound; HeLa/T-REx NICD CSL-bla cells, doxycycline-induced, 16-20 hours incubation; blue/green emission ratio
Protocol: We used the CellSensor T-REx™ NICD CSL-bla HeLa cell line, which was engineered by lentiviral transduction of HeLa cells with a Notch response element driving beta-lactamase reporter gene expression (CSL-bla) along with DOX (doxycycline)-inducible NICD (Notch intracellular domain) constructs. Addition of DOX to these cells allows for regulated NICD transcription factor expression and subsequent beta-lactamase expression.
Specifically, the following protocol was used.
• 1. Plate Cells: 32 μL/well of HeLa/T-REx™ NICD CSL-bla cells at 10^3 cells/well complete medium into 384-well plate. • 2. Prepare 10× compounds in assay medium. • 3. Add 4 μL compounds or 1% DMSO in assay medium to the cells. • 4. Add 4 μL 10× Doxycycline in Assay Medium to the treated wells, and 4 μL Assay Medium to the Untreated and cell free control wells. • 5. Incubate the assay plate in a humidified 37° C./5% CO2 incubator for 16-20 hours. • 6. Preparation of 6× LiveBLAzer™-FRET B/G Substrate (CCF4-AM) Mixture according to the manual and cell loading should be done in the absence of direct strong lighting. • 7. Remove assay plate from the humidified 37° C./5% CO2 incubator. Add 8 μl of 6× Substrate Mixture from […] to each well. Cover the plate to protect it from light and evaporation. Incubate at room temperature for 4 hours. • 8. Reading an Assay Plate using the following filter selections:
• 9. Data analysis: Use the assay plate layout to identify the location of the Cell-free wells. These control wells are used for background subtraction. Determine the average emission from the Cell-free wells at both 460 nm (Average Blue Background) and 530 nm (Average Green Background). Subtract the Average Blue Background (data collected at 460 nm) from all of the blue emission data. Subtract the Average Green background (data collected at 530 nm) from all of the green emission data. Calculate the Blue/Green Emission Ratio for each well, by dividing the background-subtracted blue emission values by the background-subtracted green emission values.

SMILES | inhibition at 10 µM [%]
CC(C)[C@@H]1CN2C(=O)CCN(C(=O)NCCC(c3ccccc3)c3ccccc3)C2CN(CCc2ccccc2)C1=O (stereo partly drawn) [ID-09, (7R)—N-(3,3-diphenylpropyl)-7-isopropyl-4,8-dioxo-9-phenethyloctahydropyrimido[1,2-a][1,4]diazepine-1(2H)-carboxamide] | 54.1
CC(C)CCN1CC2N(C[C@@H](Cc3ccccc3)C1=O)C(=O)c1sccc1N2C(=O)NCc1ccc2c(c1)OCO2 (stereo partly drawn) [ID-34, (8R)—N-(benzo[d][1,3]dioxol-5-ylmethyl)-8-benzyl-6-isopentyl-7,11-dioxo-4a,5,6,7,8,9-hexahydrothieno[3′,2′:4,5]pyrimido[1,2-a][1,4]diazepine-4(11H)-carboxamide] | 52.4
O=C1[C@H](Cc2ccc(O)cc2)CN2C(=O)CCN(C(=O)NCCC(c3ccccc3)c3ccccc3)C2CN1Cc1cccc2cccnc12 (stereo partly drawn) [ID-13, (7R)—N-(3,3-diphenylpropyl)-7-(4-hydroxybenzyl)-4,8-dioxo-9-(quinolin-8-ylmethyl)octahydropyrimido[1,2-a][1,4]diazepine-1(2H)-carboxamide] | 53.7
CC(C)CCN1CC2N(C[C@@H](Cc3ccc(O)cc3)C1=O)C(=O)c1sccc1N2C(=O)NCc1cccc2ccccc12 (stereo partly drawn) [ID-26, (8R)-8-(4-hydroxybenzyl)-6-isopentyl-N-(naphthalen-1-ylmethyl)-7,11-dioxo-4a,5,6,7,8,9-hexahydrothieno[3′,2′:4,5]pyrimido[1,2-a][1,4]diazepine-4(11H)-carboxamide] | 61.1
CCCCN1CC2N(C[C@@H](Cc3ccccc3)C1=O)C(=O)CCN2C(=O)NCCC(c1ccccc1)c1ccccc1 (stereo partly drawn) [ID-04, (7R)-7-benzyl-9-butyl-N-(3,3-diphenylpropyl)-4,8-dioxooctahydropyrimido[1,2-a][1,4]diazepine-1(2H)-carboxamide] | 54.7
O=C1[C@H](Cc2ccc(O)cc2)CN2C(=O)CCN(C(=O)NCCC(c3ccccc3)c3ccccc3)C2CN1CCc1ccccc1 (stereo partly drawn) [ID-11, (7R)—N-(3,3-diphenylpropyl)-7-(4-hydroxybenzyl)-4,8-dioxo-9-phenethyloctahydropyrimido[1,2-a][1,4]diazepine-1(2H)-carboxamide] | 64.1
O=C1[C@H](Cc2ccc(O)cc2)CN2C(=O)c3sccc3N(C(=O)NCc3cccc4ccccc34)C2CN1CC1CCCCC1 (stereo partly drawn) [ID-27, (8R)-6-(cyclohexylmethyl)-8-(4-hydroxybenzyl)-N-(naphthalen-1-ylmethyl)-7,11-dioxo-4a,5,6,7,8,9-hexahydrothieno[3′,2′:4,5]pyrimido[1,2-a][1,4]diazepine-4(11H)-carboxamide] | 54.4
